From BindingDB's records for doi:10.7270/Q290226P (Vanderbilt Screening Center For Gpcrs, Ion Channels and …, 2010)

Molecular target: T1, Muscarinic acetylcholine receptor M5 (Homo sapiens, UniProt P08912)
T1 sequence (P08912 whole entry): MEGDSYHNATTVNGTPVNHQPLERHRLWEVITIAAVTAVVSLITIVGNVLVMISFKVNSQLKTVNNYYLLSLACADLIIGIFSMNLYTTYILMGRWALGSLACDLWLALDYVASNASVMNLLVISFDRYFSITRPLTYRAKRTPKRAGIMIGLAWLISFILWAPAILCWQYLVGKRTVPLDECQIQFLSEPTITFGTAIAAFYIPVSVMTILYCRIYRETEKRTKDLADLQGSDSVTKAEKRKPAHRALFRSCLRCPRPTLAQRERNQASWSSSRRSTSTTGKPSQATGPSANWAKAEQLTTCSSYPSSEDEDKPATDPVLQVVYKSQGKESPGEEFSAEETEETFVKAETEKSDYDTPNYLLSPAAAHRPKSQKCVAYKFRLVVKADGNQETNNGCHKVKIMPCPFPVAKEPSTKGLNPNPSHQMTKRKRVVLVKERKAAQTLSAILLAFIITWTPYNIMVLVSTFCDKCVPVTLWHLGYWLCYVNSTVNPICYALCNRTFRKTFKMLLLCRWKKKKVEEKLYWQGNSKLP
Assay: PubChem AID 2186

| SMILES | EC50 [nM] |
| --- | --- |
| O=C1C(=O)N(Cc2ccc(-c3ccccc3)cc2)c2ccc(OC(F)(F)F)cc21 | > 442 |
| O=C1C(=O)N(Cc2ccc(-c3ccsc3)cc2)c2ccc(OC(F)(F)F)cc21 | > 442 |
| COc1ccc(CN2C(=O)C(=O)c3cc(OC(F)(F)F)ccc32)cc1 [VU0238429] | 0.512 |
